Values quoted from earlier work as cited in patent US11053254B2, “Crystalline forms of mitomycin C for treatment of cancer” (TRANSGENEX NANOBIOTECH, INC., priority 2018, dated 2021).

Conditions: acidic solutions with pH<6

CO[C@@]12[C@H](COC(N)=O)C3=C(C(=O)C(C)=C(N)C3=O)N1C[C@@H]1N[C@@H]12 [Mitomycin C, [(4S,6S,7R,8S)-11-amino-7-methoxy-12-methyl-10,13-dioxo-2,5-diazatetracyclo[7.4.0.0^2,7.0^4,6]trideca-1(9),11-dien-8-yl]methyl carbamate]
degradation in acidic solutions: rapid degradation
